Laboratory results as given in patent publication US5420010A, “Assay for evaluating inhibition of polymorphonuclear leukocyte elastase by N-substituted azetidinones” (Merck & Co., Inc., priority 1993, dated 1995).

Test system: HLE:α1 PI complexes
Experiment: Decrease in HLE:α1 PI complexes formed in A23187-stimulated human blood (ELISA)
Format: cell-based
Details: after treatment with A23187, 100 μM, 30 minutes
Experimental: The blood was then incubated for 30 minutes at 37° C. with 100 μM A23187 (CAL. BIOCHEM.) to stimulate the release of HLE from polymorphonuclear leukocytes. Platelet rich plasma was removed from each sample and prepared for the analysis of HLE:α1 PI complexes by ELISA, and Aα(1-21) by specific RIA.
(Compound B* differs from Compound B only by the substituent on the phenoxy.) A23187, 100 μM, was added and the blood was incubated for an additional 30 minutes. The amounts of reactivation product and α1 PI:elastase complex in the plasma were determined. The total concentration of α1 PI:Elastase complexes formed was 139 μM after treatment with A23187.

CNc1ccc2oc(C[C@H]3O[C@@]4(CC[C@H]3C)O[C@H]([C@H](C)C(=O)c3ccc[nH]3)[C@H](C)C[C@H]4C)nc2c1C(=O)O [Compound A23187]
total concentration of α1 PI:Elastase complexes formed: 139 µM
